Experimental findings from patent US20090176762A1, “JNK Inhibitors for Treatment of Skin Diseases” (LABORATOIRES SERONO SA, priority 2006, published 2009) are described below.

The subject of this test is DNFB-induced ear swelling. The experiment in a line: Contact hypersensitivity model in mice (CHS), DNFB-induced ear swelling. In kind it is in vivo. Particulars: 30 mg/kg p.o., 30 minutes before challenge; DNFB-sensitized Balb/C mice; p<0.05 vs sensitized; FIG. 4. On the procedure: Balb/C female mice of about 8-12 weeks of age (18-22 g b.w.) were used for the Contact Hypersensitivity model. They were from Charles River Italia (Calco, Italy) and housed under the following constant environmental conditions: temperature 22° C.±2, relative humidity 55%±10, 15-20 air changes per hour (filtered on HEPA 99.99%) and artificial light with a 12-hour circadian cycle (7 a.m.-7 p.m.). All in vivo studies were performed according to the European Council Directive 86/609/EEC and the Italian Ministry guidelines for the care and use of experimental animals (decree #116/92). All the experimental protocols were authorized by the Italian Ministry of Health.
All chemicals were purchased from Sigma-Aldrich (St. Louis, Mo., USA) unless otherwise specified. […]
For the induction of CHS, 8-12 weeks old Balb/C mice, were sensitized by applying once a sensitizing solution of 35 μl of 0.5% DNFB in acetone/olive oil (4:1) on the shaved back. […] Ear thickness was monitored using a caliper at day 0, at day 5 (4 h, 8 h), at day 6 (24 h) and at day 7 (48 h). […] Ear thickness of both ears was measured at three point each, ear swelling was evaluated according to the following formula: […]
All values in the text and figures are presented as mean±SEM of (n) independent experiments. All data were analysed by one-way ANOVA followed by Tukey test. […]

As to `N#CC(c1ccnc(OCc2ccc(CN3CCOCC3)cc2)n1)c1nc2ccccc2s1` (stereo not shown) [JNK inhibitor, 1,3-benzothiazol-2-yl(2-{[4-(morpholin-4-ylmethyl)benzyl]oxy}pyrimidin-4-yl)acetonitrile], the ear swelling result is given as “significantly reduced ear swelling”.
